Key:
IP receptor = target: T1, IP receptor (Homo sapiens, UniProt P43119); test: Iloprost-induced cAMP production assay in HEL cells (Assay 2); type: cell-based; details: read-out: Activity grade assay 2
T1 construct: HEL cells were collected with centrifugation and washed with cAMP assay buffer; host or cells: HEL 92.1.7 human erythroleukemia cells
Procedure: [Iloprost-Induced cAMP Production Assay in HEL Cells] (Assay 2)
HEL cells were collected with centrifugation and washed with cAMP assay buffer (CAB: Hank's balanced salt solution, 17 mM Hepes, 0.1% bovine serum albumin, 1 mM IBMX, 0.4% DMSO, and 1 mM L-ascorbic acid sodium salt (pH 7.4)). Cells were suspended at the density of 2.5×10^5 cells/ml in CAB, and twenty thousand cells in 80 μl aliquot of cell suspension were put in a well of 96 well plate (Falcon). Then, 10 μl of compound solution diluted with 1% DMSO in CAB or buffer alone was added. The plate was incubated at 37° C. for 30 min. Then, another 10 μl containing 100 nM iloprost in CAB or buffer alone was added and further incubated at 37° C. for 30 min. cAMP content in the well was measured by a cAMP ELISA kit (Applied Biosystems, USA).
Results of Iloprost-induced cAMP production assay (Assay2) are shown in Examples and tables of the Examples below. For practical reasons, the compounds are grouped in three classes of activity as follows: A(=or<)0.1μM<B(=or<)1μM<C

T1 sequence (P43119 whole entry): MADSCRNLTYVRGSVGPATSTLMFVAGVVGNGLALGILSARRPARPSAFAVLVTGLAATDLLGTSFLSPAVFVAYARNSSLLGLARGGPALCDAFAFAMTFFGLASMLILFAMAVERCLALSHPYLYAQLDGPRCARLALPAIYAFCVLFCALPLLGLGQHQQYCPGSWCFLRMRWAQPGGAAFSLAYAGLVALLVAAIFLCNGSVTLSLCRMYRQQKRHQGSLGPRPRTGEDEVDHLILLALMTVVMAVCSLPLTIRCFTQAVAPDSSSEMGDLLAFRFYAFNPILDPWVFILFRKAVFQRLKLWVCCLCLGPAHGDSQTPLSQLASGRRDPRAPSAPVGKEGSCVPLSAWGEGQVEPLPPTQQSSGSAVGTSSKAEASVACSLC

Structure (SMILES)	IC50 (IP receptor)	melting point
O=C(NC(CO)C(=O)O)c1ccc2cc(OCc3ccccc3)ccc2c1 (centres unmarked) [Example 1-2]	> 1000 nM	196 to 198 °C
O=C(NC(Cc1ccccc1)C(=O)O)c1ccc2cc(OCCOc3ccccc3)ccc2c1 (centres unmarked) [Example 1-4]	100 to 1000 nM	225 to 227 °C
O=C(NC(Cc1ccccc1)C(=O)O)c1ccc2cc(OCc3ccccn3)ccc2c1 (centres unmarked) [Example 1-9]	100 to 1000 nM	214 °C
O=C(NC(Cc1ccccc1C(F)(F)F)C(=O)O)c1ccc2cc(OCc3ccccc3)ccc2c1 (centres unmarked) [Example 1-13]	100 to 1000 nM	
O=C(NC(Cc1ccccc1)C(=O)O)c1ccc2cc(OCc3ccc(Cl)cc3)ccc2c1 (centres unmarked) [Example 1-25]	100 to 1000 nM	226 °C
O=C(NC(Cc1ccccc1)C(=O)O)c1ccc2cc(OCc3ccccc3C(F)(F)F)ccc2c1 (centres unmarked) [Example 1-26]	100 to 1000 nM	167 °C
O=C(NC(Cc1ccccc1)C(=O)O)c1ccc2cc(OCc3cccc(C(F)(F)F)c3)ccc2c1 (centres unmarked) [Example 1-27]	> 1000 nM	158 °C
O=C(NC(Cc1ccccc1)C(=O)O)c1ccc2cc(OCc3ccc(C(F)(F)F)cc3)ccc2c1 (centres unmarked) [Example 1-28]	> 1000 nM	224 °C
COc1ccc(COc2ccc3cc(C(=O)NC(Cc4ccccc4)C(=O)O)ccc3c2)cc1 (centres unmarked) [Example 1-31]	> 1000 nM	188 °C
O=C(NC(Cc1ccccc1)C(=O)O)c1ccc2cc(OCc3ccc(Cl)c(Cl)c3)ccc2c1 (centres unmarked) [Example 1-32]	100 to 1000 nM	202 °C
O=C(NC(Cc1ccccc1)C(=O)O)c1ccc2cc(OCc3cccc(OC(F)(F)F)c3)ccc2c1 (centres unmarked) [Example 1-36]	100 to 1000 nM	157 °C
O=C(NC(Cc1ccccc1)C(=O)O)c1ccc2cc(OCc3ccccc3OC(F)(F)F)ccc2c1 (centres unmarked) [Example 1-37]	> 1000 nM	158 °C
COc1cccc(COc2ccc3cc(C(=O)NC(Cc4ccccc4)C(=O)O)ccc3c2)c1OC (centres unmarked) [Example 1-38]	> 1000 nM	161 °C
Cc1c(COc2ccc3cc(C(=O)NC(Cc4ccccc4)C(=O)O)ccc3c2)cccc1[N+](=O)[O-] (centres unmarked) [Example 1-39]	100 to 1000 nM	202 °C
Cc1ccc(C)c(COc2ccc3cc(C(=O)NC(Cc4ccccc4)C(=O)O)ccc3c2)c1 (centres unmarked) [Example 1-40]	100 to 1000 nM	210 °C
O=C(NC(Cc1ccccc1)C(=O)O)c1ccc2cc(OCc3c(Cl)cccc3Cl)ccc2c1 (centres unmarked) [Example 1-41]	100 to 1000 nM	245 °C

Structure (SMILES)	IC50 (IP receptor)	melting point
O=C(NC(Cc1ccccc1)C(=O)O)c1ccc2cc(OCc3ccc(Cl)cc3Cl)ccc2c1 (centres unmarked) [Example 1-42]	> 1000 nM	202 °C
O=C(NC(Cc1ccccn1)C(=O)O)c1ccc2cc(OCc3ccccc3)ccc2c1 (centres unmarked) [Example 1-43]	100 to 1000 nM	172 to 173 °C (dec.)
O=C(NC(Cc1ccc(Br)cc1)C(=O)O)c1ccc2cc(OCc3ccccc3)ccc2c1 (centres unmarked) [Example 1-45]	< 100 nM	219 to 220 °C
O=C(NC(Cc1ccc([N+](=O)[O-])cc1)C(=O)O)c1ccc2cc(OCc3ccccc3)ccc2c1 (centres unmarked) [Example 1-46]	< 100 nM	227 to 228 °C
O=C(NC(Cc1cccc(O)c1)C(=O)O)c1ccc2cc(OCc3ccccc3)ccc2c1 (centres unmarked) [Example 1-47]	< 100 nM	214 °C
O=C(NC(Cc1cccc2ccccc12)C(=O)O)c1ccc2cc(OCc3ccccc3)ccc2c1 (centres unmarked) [Example 1-48]	< 100 nM	218 °C
O=C(NC(Cc1c[nH]c2ccc(O)cc12)C(=O)O)c1ccc2cc(OCc3ccccc3)ccc2c1 (centres unmarked) [Example 1-49]	< 100 nM	261 to 262 °C (dec.)
O=C(NC(Cc1ccccc1F)C(=O)O)c1ccc2cc(OCc3ccccc3)ccc2c1 (centres unmarked) [Example 1-50]	< 100 nM	211 to 213 °C
O=C(NC(Cc1ccccc1)C(=O)O)c1ccc2cc(OCc3ccccc3Br)ccc2c1 (centres unmarked) [Example 1-51]	< 100 nM	206 to 207 °C
O=C(NC(Cc1ccccc1)C(=O)O)c1ccc2cc(OCc3cccc(Br)c3)ccc2c1 (centres unmarked) [Example 1-52]	< 100 nM	194 °C
O=C(NC(Cc1ccccc1)C(=O)O)c1ccc2cc(OCc3ccc(Br)cc3)ccc2c1 (centres unmarked) [Example 1-53]	> 1000 nM	232 °C
Cc1ccccc1COc1ccc2cc(C(=O)NC(Cc3ccccc3)C(=O)O)ccc2c1 (centres unmarked) [Example 1-54]	< 100 nM	204 °C
Cc1cccc(COc2ccc3cc(C(=O)NC(Cc4ccccc4)C(=O)O)ccc3c2)c1 (centres unmarked) [Example 1-55]	< 100 nM	184 to 185 °C
Cc1ccc(COc2ccc3cc(C(=O)NC(Cc4ccccc4)C(=O)O)ccc3c2)cc1 (centres unmarked) [Example 1-56]	100 to 1000 nM	212 °C
O=C(N[C@@H](Cc1ccccc1)C(=O)O)c1ccc2cc(OCc3ccccc3)ccc2c1 [Example 2-2, N-[6-(benzyloxy)-2-naphthoyl]-L-phenylalanine]	> 1000 nM	

Results, then the compound that gave them:

IC50 (IP receptor)	melting point	Structure (SMILES)
< 100 nM	230 °C	O=C(N[C@@H](Cc1ccccc1)C(=O)O)c1ccc2cc(OCc3ccccc3)ccc2c1 (single isomer, unassigned) [Example 1-1, N-(6-Benzyloxy-2-naphthoyl)phenylalanine]
< 100 nM	212 to 214 °C (dec.)	O=C(NC(Cc1ccc(C(F)(F)F)cc1)C(=O)O)c1ccc2cc(OCc3ccccc3)ccc2c1 (centres unmarked) [Example 1-3]
< 100 nM	197 °C	O=C(NC(Cc1ccccc1)C(=O)O)c1ccc2cc(OCc3ccc(F)cc3)ccc2c1 (centres unmarked) [Example 1-5]
< 100 nM	197 to 199 °C	O=C(NC(Cc1ccccc1)C(=O)O)c1ccc2cc(OCc3cccc(F)c3)ccc2c1 (centres unmarked) [Example 1-6]
< 100 nM	180 to 182 °C	O=C(NC(Cc1ccccc1)C(=O)O)c1ccc2cc(OCc3ccccc3F)ccc2c1 (centres unmarked) [Example 1-7]
< 100 nM	217 °C	O=C(NC(Cc1ccccc1)C(=O)O)c1ccc2cc(OCc3cccnc3)ccc2c1 (centres unmarked) [Example 1-8]
< 100 nM	185 °C	O=C(NC(Cc1ccccc1)C(=O)O)c1ccc2cc(OCc3ccc(F)c(F)c3)ccc2c1 (centres unmarked) [Example 1-10]
< 100 nM	168 to 169 °C	O=C(NC(Cc1ccccc1)C(=O)O)c1ccc2cc(OCCn3cccc3)ccc2c1 (centres unmarked) [Example 1-11]
< 100 nM	220 to 221 °C	O=C(NC(Cc1ccccc1)C(=O)O)c1ccc2cc(OCc3ccncc3)ccc2c1 (centres unmarked) [Example 1-12]
< 100 nM		O=C(NC(Cc1cccc(C(F)(F)F)c1)C(=O)O)c1ccc2cc(OCc3ccccc3)ccc2c1 (centres unmarked) [Example 1-14]
< 100 nM		O=C(NC(Cc1c[nH]c2ccccc12)C(=O)O)c1ccc2cc(OCc3ccccc3)ccc2c1 (centres unmarked) [Example 1-15]
< 100 nM		COc1ccc(CC(NC(=O)c2ccc3cc(OCc4ccccc4)ccc3c2)C(=O)O)cc1 (centres unmarked) [Example 1-16]
< 100 nM		COc1cc(CC(NC(=O)c2ccc3cc(OCc4ccccc4)ccc3c2)C(=O)O)ccc1O (centres unmarked) [Example 1-17]
< 100 nM		O=C(NC(C(=O)O)C(O)c1ccccc1)c1ccc2cc(OCc3ccccc3)ccc2c1 (centres unmarked) [Example 1-18]
< 100 nM	144 °C	O=C(NC(Cc1ccccc1)C(=O)O)c1ccc2cc(OCCc3ccccc3)ccc2c1 (centres unmarked) [Example 1-19]
< 100 nM	202 to 204 °C	O=C(NC(Cc1ccc(Cl)cc1)C(=O)O)c1ccc2cc(OCc3ccccc3)ccc2c1 (centres unmarked) [Example 1-20]
< 100 nM	188 to 191 °C	O=C(NC(Cc1cccc(F)c1)C(=O)O)c1ccc2cc(OCc3ccccc3)ccc2c1 (centres unmarked) [Example 1-21]
< 100 nM	214 to 216 °C	O=C(NC(Cc1ccc(F)cc1)C(=O)O)c1ccc2cc(OCc3ccccc3)ccc2c1 (centres unmarked) [Example 1-22]
< 100 nM	215 °C	O=C(NC(Cc1ccccc1)C(=O)O)c1ccc2cc(OCc3ccccc3Cl)ccc2c1 (centres unmarked) [Example 1-23]
< 100 nM	187 °C	O=C(NC(Cc1ccccc1)C(=O)O)c1ccc2cc(OCc3cccc(Cl)c3)ccc2c1 (centres unmarked) [Example 1-24]
< 100 nM	169 °C	COc1ccccc1COc1ccc2cc(C(=O)NC(Cc3ccccc3)C(=O)O)ccc2c1 (centres unmarked) [Example 1-29]
< 100 nM	163 °C	COc1cccc(COc2ccc3cc(C(=O)NC(Cc4ccccc4)C(=O)O)ccc3c2)c1 (centres unmarked) [Example 1-30]
< 100 nM	211 °C	O=C(NC(Cc1ccccc1)C(=O)O)c1ccc2cc(OCc3cccc(Cl)c3Cl)ccc2c1 (centres unmarked) [Example 1-33]
< 100 nM	180 °C	O=C(NC(Cc1ccccc1)C(=O)O)c1ccc2cc(OCc3cc(Cl)cc(Cl)c3)ccc2c1 (centres unmarked) [Example 1-34]
< 100 nM	140 °C	COc1cc(COc2ccc3cc(C(=O)NC(Cc4ccccc4)C(=O)O)ccc3c2)cc(OC)c1 (centres unmarked) [Example 1-35]
< 100 nM	200 to 202 °C	O=C(NC(Cc1cccs1)C(=O)O)c1ccc2cc(OCc3ccccc3)ccc2c1 (centres unmarked) [Example 1-44]

Reference: patent US20060166989A1, “2-naphthamide derivatives” (Bayer Healthcare AG, priority 2002, published 2006)
